Drawing on ChEMBL document CHEMBL5131475, “Metallo-β-lactamases inhibitor fisetin attenuates meropenem resistance in NDM-1-producing Escherichia coli” (Eur J Med Chem, 2022), this text covers MIC for 14 compounds.

Values after ≈ are worked out from the molar mass of the structure shown.

Assay type in all cases: functional
Conditions in all cases: time 18-24 hrs

Test [1] concerns Escherichia coli. The test can be described thus: Antibacterial activity against pET28a-NDM-1 positive Escherichia coli BL21(DE3) isolates assessed as inhibition of bacterial growth incubated for 18 to 24 hrs by CLSI based broth microdilution method.
For test [2], the system named is Escherichia coli. The test can be described thus: Antibacterial activity against NDM-1 positive Escherichia coli ZC-YN3 isolates assessed as inhibition of bacterial growth incubated for 18 to 24 hrs by CLSI based broth microdilution method.
Test [3] relates to Escherichia coli. The test can be described thus: Antibacterial activity against NDM-1 positive MCR1 carrying Escherichia coli ZJ487 isolates assessed as inhibition of bacterial growth incubated for 18 to 24 hrs by CLSI based broth microdilution method. In general terms: Broth dilution looks for growth in wells or tubes with falling amounts of substance.
Test [4] deals with Escherichia coli. The test can be described thus: Antibacterial activity against NDM-1 negative Escherichia coli ATCC25922 isolates assessed as inhibition of bacterial growth incubated for 18 to 24 hrs by CLSI based broth microdilution method.
Test [5] deals with Escherichia coli. The test can be described thus: Antibacterial activity against NDM-1 negative Escherichia coli BL21(DE3) pET28a isolates assessed as inhibition of bacterial growth incubated for 18 to 24 hrs by CLSI based broth microdilution method.

What is called MIC is the least concentration at which growth counts as inhibited. `CN(C)[C@@H]1C(O)=C(C(N)=O)C(=O)[C@@]2(O)C(O)=C3C(=O)c4c(O)cccc4[C@@](C)(O)[C@H]3C[C@@H]12` [TETRACYCLINE]: the minimum inhibitory concentration (MIC) is 512 µg/mL (≈ 1150 µM) in test [1] and 128 µg/mL (≈ 288 µM) in test [2].

For the compound `C[C@@H](O)[C@H]1C(=O)N2C(C(=O)O)=C(S[C@@H]3CN[C@H](C(=O)N(C)C)C3)[C@H](C)[C@H]12` [MEROPENEM], the minimum inhibitory concentration (MIC) was found to be 21.3 µg/mL (≈ 55.5 µM) in test [3]; 37.3 µg/mL (≈ 97.3 µM) in test [1]; 16 µg/mL (≈ 41.7 µM) in test [2]; 0.01 µg/mL (≈ 0.0261 µM) in test [4]; 0.01 µg/mL (≈ 0.0261 µM) in test [5].

`CN[C@H](CC(C)C)C(=O)N[C@H]1C(=O)N[C@@H](CC(N)=O)C(=O)N[C@H]2C(=O)N[C@H]3C(=O)N[C@H](C(=O)N[C@H](C(=O)O)c4cc(O)cc(O)c4-c4cc3ccc4O)[C@H](O)c3ccc(c(Cl)c3)Oc3cc2cc(c3O[C@@H]2O[C@H](CO)[C@@H](O)[C@H](O)[C@H]2O[C@H]2C[C@](C)(N)[C@H](O)[C@H](C)O2)Oc2ccc(cc2Cl)[C@H]1O` [VANCOMYCIN]: the figures for the minimum inhibitory concentration (MIC) in test [1] and in test [2] were 683 µg/mL (≈ 471 µM) and 512 µg/mL (≈ 353 µM), respectively.

Regarding `C[C@@H](O)[C@H]1C(=O)N2C(C(=O)O)=C(SCCNC=N)C[C@H]12` [IMIPENEM ANHYDROUS], the minimal inhibitory concentration (MIC) in test [1] and in test [2] was 26.7 µg/mL (≈ 89.2 µM) throughout.

In the case of `NC[C@H]1O[C@H](O[C@H]2[C@H](O)[C@@H](O[C@H]3O[C@H](CO)[C@@H](O)[C@H](N)[C@H]3O)[C@H](N)C[C@@H]2N)[C@H](O)[C@@H](O)[C@@H]1O` [KANAMYCIN], the minimum inhibitory concentration (MIC) in test [1] is 512 µg/mL (≈ 1060 µM); in test [2], 853 µg/mL (≈ 1760 µM).

For `CCC[C@@H]1C[C@@H](C(=O)N[C@@H]([C@H]2O[C@H](SC)[C@H](O)[C@@H](O)[C@H]2O)[C@@H](C)O)N(C)C1` [LINCOMYCIN], the minimal inhibitory concentration (MIC) in test [1] and in test [2] was 1020 µg/mL (≈ 2510 µM) each time.

With `CC1(C)S[C@@H]2[C@H](NC(=O)[C@H](N)c3ccccc3)C(=O)N2[C@H]1C(=O)O` [AMPICILLIN], the minimum inhibitory concentration (MIC) in test [1] and in test [2] was 853 µg/mL (≈ 2440 µM) in each case.

On to `CO/N=C(\C(=O)N[C@@H]1C(=O)N2C(C(=O)O)=C(COC(C)=O)CS[C@H]12)c1csc(N)n1` [CEFOTAXIME], for which the minimum inhibitory concentration (MIC) in test [1] and in test [2] was 512 µg/mL (≈ 1120 µM) throughout.

Consider COLISTIN, for which the MIC came to 1.67 µg/mL in test [1] and 1.33 µg/mL in test [2].

For the compound `CO[C@H]1/C=C/O[C@@]2(C)Oc3c(C)c(O)c4c(O)c(c(/C=N/N5CCN(C)CC5)c(O)c4c3C2=O)NC(=O)/C(C)=C\C=C\[C@H](C)[C@H](O)[C@@H](C)[C@@H](O)[C@@H](C)[C@H](OC(C)=O)[C@@H]1C` [RIFAMPIN], the minimum inhibitory concentration (MIC) in test [1] stood at 1020 µg/mL (≈ 1240 µM); in test [2], 13.3 µg/mL (≈ 16.2 µM).

In the case of `CS(=O)(=O)c1ccc([C@@H](O)[C@@H](CF)NC(=O)C(Cl)Cl)cc1` [FLORFENICOL], the MIC in test [1] worked out at 1020 µg/mL (≈ 2850 µM); in test [2], 427 µg/mL (≈ 1190 µM).

On to `CN[C@@H]1[C@H](O)[C@H](NC)[C@H]2O[C@@]3(O)C(=O)C[C@@H](C)O[C@H]3O[C@@H]2[C@H]1O` [SPECTINOMYCIN], for which the MIC in test [1] is 512 µg/mL (≈ 1540 µM); in test [2], 853 µg/mL (≈ 2570 µM).

In the case of `C[C@H]1c2cccc(O)c2C(=O)C2=C(O)[C@]3(O)C(=O)C(C(N)=O)=C(O)[C@@H](N(C)C)[C@@H]3[C@@H](O)[C@@H]21.O` [DOXYCYCLINE], the MIC in test [1] was 128 µg/mL; in test [2] it was 64 µg/mL.

With `CN[C@@H]1[C@H](O[C@H]2[C@H](O[C@H]3[C@H](O)[C@@H](O)[C@H](N=C(N)N)[C@@H](O)[C@@H]3N=C(N)N)O[C@@H](C)[C@]2(O)C=O)O[C@@H](CO)[C@H](O)[C@H]1O` [STREPTOMYCIN], the MIC in test [1] was determined as 53.3 µg/mL (≈ 91.6 µM); in test [2], 256 µg/mL (≈ 440 µM).
